According to PubChem BioAssay (NCI):
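Briefly, cells in 96-well plates were exposed to five compound concentrations for 48 h, and endpoints were estimated by linear interpolation. TGI is the concentration that stops growth completely.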

Key:
Assay in all cases: DTP human tumour cell line panel, 48 h
A498 renal = system: A498 renal
A549 NSCLC = system: A549 NSCLC
CCRF-CEM leukemia = system: CCRF-CEM leukemia
DMS 114 small cell lung = system: DMS 114 small cell lung
HCC-2998 colon = system: HCC-2998 colon
HT29 colon = system: HT29 colon
K-562 leukemia = system: K-562 leukemia
M14 melanoma = system: M14 melanoma
NCI-H23 lung = system: NCI-H23 lung
OVCAR-3 ovarian = system: OVCAR-3 ovarian
OVCAR-4 ovarian = system: OVCAR-4 ovarian
RPMI-8226 leukemia = system: RPMI-8226 leukemia
RXF 393 renal = system: RXF 393 renal
SNB-19 CNS = system: SNB-19 CNS
SR leukemia = system: SR leukemia
TK-10 renal = system: TK-10 renal
UACC-257 melanoma = system: UACC-257 melanoma
UO-31 renal = system: UO-31 renal
SK-MEL-5 melanoma = system: SK-MEL-5 melanoma
MCF7 breast = system: MCF7 breast

Row | SMILES | TGI (A498 renal) [µM] | TGI (A549 NSCLC) [µM] | TGI (CCRF-CEM leukemia) [µM] | TGI (DMS 114 small cell lung) [µM] | TGI (HCC-2998 colon) [µM] | TGI (HT29 colon) [µM] | TGI (K-562 leukemia) [µM] | TGI (M14 melanoma) [µM] | TGI (NCI-H23 lung) [µM] | TGI (OVCAR-3 ovarian) [µM] | TGI (OVCAR-4 ovarian) [µM] | TGI (RPMI-8226 leukemia) [µM] | TGI (RXF 393 renal) [µM] | TGI (SNB-19 CNS) [µM] | TGI (SR leukemia) [µM] | TGI (TK-10 renal) [µM] | TGI (UACC-257 melanoma) [µM] | TGI (UO-31 renal) [µM] | TGI (SK-MEL-5 melanoma) [µM] | TGI (MCF7 breast) [µM]
1 | COc1cc(C2c3cc4c(cc3OC3(O)COC(=O)C23)OCO4)cc(OC)c1OC (configuration not stated) | > 100 | > 100 | > 100 | > 100 | > 100 | > 100 | > 100 | > 100 | > 100 | > 100 | > 100 | > 100 | 91.5 | > 100 | 59.1 | > 100 | > 100 | > 100 | – | –
2 | CC(=O)Nc1ccc(C2=N/C(=C\c3ccc(Cl)c(Cl)c3)C(=O)O2)cc1 | > 100 | > 100 | > 100 | > 100 | > 100 | > 100 | > 100 | > 100 | > 100 | > 100 | > 100 | > 100 | > 100 | > 100 | > 100 | > 100 | > 100 | > 100 | > 100 | –
3 | COc1ccc2c(C)cc(N/N=C/c3sccc3C)nc2c1 | – | 29.4 | > 100 | – | 25.7 | 12.5 | – | 24.1 | 33.1 | 10.6 | > 100 | 26.6 | 32 | 41.6 | 87.3 | 43.3 | 22.4 | 54.8 | 18.9 | 26.1
4 | Nc1ccc2cc(S(=O)(=O)O)cc(O)c2c1N=Nc1ccc(NC(=O)Nc2ccc(N=Nc3c(N)ccc4cc(S(=O)(=O)O)cc(O)c34)c(S(=O)(=O)O)c2)cc1S(=O)(=O)O | > 100 | > 100 | > 100 | > 100 | > 100 | > 100 | > 100 | – | > 100 | > 100 | > 100 | – | > 100 | – | – | – | > 100 | > 100 | > 100 | > 100
5 | CCCCC(NC(=O)CC)C(=O)O (configuration not stated) | > 100 | > 100 | > 100 | > 100 | > 31.6 | > 100 | > 100 | – | > 100 | > 100 | > 100 | > 100 | – | > 100 | – | – | > 100 | > 100 | > 100 | > 100
6 | CN1C[C@H]2[C@@H](C1=O)[C@H](c1ccc([N+](=O)[O-])cc1)ON2C | – | > 100 | > 100 | – | > 100 | > 100 | > 100 | > 100 | > 100 | > 100 | > 100 | > 100 | – | > 100 | > 100 | > 100 | > 100 | > 100 | > 100 | > 100
7 | COc1cc(C2C(Cl)C(=O)N2NC(=O)c2ccc(NC(C)=O)cc2)cc(Br)c1O (configuration not stated) | – | > 100 | > 100 | – | > 100 | > 100 | > 100 | – | > 100 | > 100 | – | > 100 | – | > 100 | > 100 | > 100 | > 100 | > 100 | > 100 | –
8 | NC(=O)NC(CC(=O)O)C(=O)O (configuration not stated) | > 100 | > 100 | > 100 | – | > 100 | > 100 | > 100 | > 100 | > 100 | > 100 | > 100 | > 100 | > 100 | > 100 | > 100 | > 100 | > 100 | > 100 | > 100 | –
9 | CC1C(=O)C(C)C(c2cccs2)N(N=O)C1c1cccs1 (configuration not stated) | > 100 | > 100 | > 100 | > 100 | > 100 | > 100 | > 100 | – | > 100 | > 100 | > 100 | > 100 | > 100 | > 100 | – | – | > 100 | > 100 | > 100 | > 100
10 | O=C1ON(Cc2ccccc2)C(c2ccccc2)N1c1ccccc1 (configuration not stated) | > 100 | > 100 | > 100 | > 100 | > 100 | > 100 | > 100 | – | > 100 | > 100 | > 100 | > 100 | > 100 | > 100 | – | – | > 100 | > 100 | > 100 | > 100
11 | CN(C)CCCc1cccnc1 | > 100 | > 100 | > 100 | – | > 100 | > 100 | > 100 | > 100 | > 100 | > 100 | > 100 | > 100 | > 100 | > 100 | > 100 | > 100 | > 100 | > 100 | > 100 | > 100
